A melting point compilation (Tetko et al.; mined from patent text by program, amines drawn as free bases though some values may be those of a salt)

| SMILES | melting point [°C] |
| --- | --- |
| FC(F)(F)c1ccc2nc(-c3csc(Nc4c(Cl)cccc4Cl)n3)[nH]c2c1 | 242 to 243 |
| C#CCOC(=O)c1cc(-n2c(=O)c3c(n(C)c2=O)CCC3)c(F)cc1Cl | 193 to 195 |
| O=c1[nH]c2cc(C(F)(F)F)c(C(F)(F)F)cc2[nH]c1=O | > 250 |
| Cc1ccc(C(=O)Nc2ccc(C[C@H](NC(=O)Nc3ccccc3S(=O)(=O)c3ccccc3)C(=O)O)cc2)c(Cl)n1 | 210 |
| COCCOCCOc1ccc2c(c1)S(=O)(=O)N(CCl)C2=O | 113 to 115 |
| O=C(NC1CN2CCC1CC2)c1cccc2nc(-c3ccccc3)oc12 (stereo unspecified) | 179 to 180 |
| O=C(N[C@H]1CC[C@H](CCN2CCN(c3nccc4c3OCC4)CC2)CC1)c1ccc(N2CCOCC2)cc1 | 242 |
| O=C(C=Cc1ccc(N2CCCC2)nc1)N1CCc2c([nH]c3ccccc23)C1c1ccc2c(c1)CCO2 (stereo unspecified) | 201 |
| NC(=O)CN1CCC(C(=O)N2CCN3C(=O)OC(c4ccccc4)(c4ccccc4)C3C2)CC1 (stereo unspecified) | 253 to 255 |
| CN(C)C1CCN(c2cc3c(Cl)cccc3c(=O)[nH]2)CC1 | 210 to 211 |
| O=C(CSc1ccc(C(F)(F)F)cn1)C12CC3CC(CC(C3)C1)C2 | 141 to 142 |
| CCNC(=O)C(=O)[C@H](Cc1ccccc1)NC(=O)[C@H](CC(C)C)NC(=O)O[C@H]1CCOC1 | 159 to 161 |
| CC(=O)c1ccc(N2CCN(C(=O)c3c(Cl)ccc([N+](=O)[O-])c3Cl)CC2)c(F)c1 | 209 to 211 |
| CS(=O)(=O)c1ccc(-c2nc(-c3cc4ccccc4o3)[nH]c2-c2ccc(F)cc2)cc1 | 235 to 237 |
| CCCCC(=O)N[C@H]1CC[C@H](CCN2CCN(c3nccc4c3CCO4)CC2)CC1 | 180 |
| N#Cc1cc(C(=O)c2ccccc2)ccc1O | 185 to 186 |
| CCCCN(CCCC)CCCOc1ccc(C(=O)c2c(-c3ccccc3)n(C)c3ccc(NS(C)(=O)=O)cc23)cc1 | 116 |
| CN(C)c1ccc(-c2n[nH]c(=O)c3cc(N(C)C)ccc23)cc1 | 230 to 233 |
| Cc1ccc(C)c2c1CCC2=O | 70 |
| C[C@@H](NC(=O)[C@@H](NC(=O)OCc1ccccc1)C(Cc1ccccc1)C(=O)O)C(=O)O (stereo partly specified) | 158 to 159 |
| CCCN(CCCCC12CC3CC(CC(C3)C1)C2)C(=O)NCCCc1ccncc1 | 110 |
| CN1CC(CO)CC2c3cccc4c3C(CN4)CC21 (stereo unspecified) | 226 to 228 |
| COC1(c2cc(F)cc(OCc3ccc(N(C)S(C)(=O)=O)c(Cl)c3)c2)CCOCC1 | 126 to 128 |
| CC(=O)N(C)C1CCNCC1 | < 50 |
| CC(=O)Oc1ccc(-c2ccc(C(C)O)cc2)cc1 (stereo unspecified) | 142 to 144 |
| NCCCCCCCCCCCCCCCCCCCCCC(=O)O | 166 to 168 |

| SMILES | melting point [°C] |
| --- | --- |
| Cc1ccc(C(=O)Oc2ccc3c(OC(=O)c4ccc(C)c(O)c4)c4ccccc4cc3c2OC(=O)c2ccc(C)c(O)c2)cc1O | 251 |
| Nc1cc(N)cc(C(c2c(O)c3c(oc2=O)CCCCCC3)C2CC2)c1 (stereo unspecified) | 87 |
| CC(=O)N(CCCC(=O)O)C(c1ccccc1)c1ccccc1 | 173 to 174 |
| c1cc2c(N3CCNCC3)csc2cn1 | 126 to 128 |
| CC12CCC(C(=Cc3ccc(CC(SSCC(=O)O)C(=O)O)cc3)C1=O)C2(C)C (stereo unspecified) | 116 |
| Brc1cccc(Oc2ccccc2)n1 | 83 to 86 |
| CCOC(=O)C=N[C@@H]1c2cc(C#N)ccc2OC(C)(C)[C@H]1O (relative stereo) | 98 to 100 |
| O=C(c1nc(-c2ccccc2)nc2ccccc12)N1CCCCCC1 | 140 |
| COC(=O)COC(=O)COc1ccc([N+](=O)[O-])cc1 | 88 to 90 |
| Cc1nnc(-c2ccc3occ(-c4ccc(S(C)(=O)=O)c(F)c4)c3c2)o1 | 199 to 200 |
| NC1NC=CN1c1ccncc1 (stereo unspecified) | 190 |
| CSc1cc(=O)c2ccc(F)cc2s1 | 120 to 121 |
| CC(C)n1c(C(F)(F)F)cnc1-c1ccc(O)cc1 | 249 to 250 |
| CN(CCc1cccs1)C(=O)C12CC3CC(CC(C3)C1)C2 | 95 to 99 |
| Cc1cccc2c1C1=C(CC2)NC(=O)CC1 | 168 to 169 |
| CCCCc1noc(-c2ccccc2)c1-c1ccc(S(N)(=O)=O)cc1 | 150 |
| O=C1CCCc2c(-c3ccncc3)[nH]c(-c3ccccc3)c21 | 259 to 260 |
| CCN(CC)NC(C)=O | 47.5 to 49.5 |
| O=c1[nH]c2c(CCO)c3ccccc3n2c2ccccc12 | 248 to 252 |
| CC(=O)c1ccc2c(c1)CC(NC(=O)C(F)(F)F)C2 (stereo unspecified) | 112 to 114 |
| CN1Cc2cc(Br)cnc2N(C)C1=O | 119 to 120 |
| N#Cc1cc2c(-c3ccncc3)nccc2[nH]c1=O | > 300 |
| Cc1nn(C2=NNN(S)C2N)c2c1CCCC2 (stereo unspecified) | 201 to 202 |
| O=S(=O)(CCc1ccc(O)cc1)CC1CCC1 | 112 |
| CC(C)C(NC(=O)c1ccc(C(=O)NCC(=O)O)cc1)C(=O)N(CC(=O)NC(C(=O)C(F)(F)F)C(C)C)C1Cc2ccccc2C1 (mixture of isomers) | 88 to 91 |
| CCOC(=O)c1cn(C2CCCCC2)c2cc(I)ccc2c1=O | 169 to 171 |

The next lines start with the values.

| melting point [°C] | SMILES |
| --- | --- |
| 160 to 161 | Cc1ccc(O)c(CNc2nc(NC[C@@H](C)O)nc3c2ncn3C(C)C)c1 |
| 158 to 160 | COc1ccc(/C(=C\C=C\C2CC2)C(=O)O)cc1 |
| 170 to 172 | CCN1N=C(c2ccc3c(c2)CCC(=O)N3C)C(C)CC1=O (stereo unspecified) |
| 164 to 168 | Cc1nc(N)nc(N)c1C=CC(C)(C)c1ccc(F)cc1 |
| 110 to 111 | COc1cc(C)c(Br)cc1OCc1ccccc1 |
| 138 to 140 | CCOC(=O)c1c(CBr)cccc1S(N)(=O)=O |
| 183 to 184 | COC(=O)c1cc(-c2ccc(=O)n(C(C)C)n2)c(-c2ccccc2)nc1OCC(N)=O |
| 103 to 105 | CN(C)C(=O)CCc1ccc(OCCN(C)c2nc3ccccc3o2)cc1 |
| 206 to 208 | CN1CC[C@@H](c2c(O)cc(O)c3c(=O)cc(-c4ccccc4F)oc23)[C@@H]1CO |
| 174 to 175 | COc1ccc(N2CCC(=O)N(c3ccc(C)cc3)CC2)c(-c2ccc(N(C)C)cc2)n1 |
| 160 to 161 | COC(=O)c1nc2c(c(-c3ccccc3)nn2-c2ccccc2)c(N)c1C(=S)OC |
| 284 to 286 | CNc1nc(Nc2ccc(Cl)c(Cl)c2)ncc1NC(=O)C(C)C |
| 61 to 62 | COc1ccc(SCCCCN2C(=O)c3ccccc3C2=O)cc1 |
| 134 to 140 | CCC(C)(CC)C1=NN=C(NC(=O)c2c(OC)cccc2OC)SC1 |
| 119 to 121 | COc1ccc(NC(C)(C)C(=O)O)c([N+](=O)[O-])c1 |
| 80 to 81 | CC1(C)C2CC=C(CCn3c(=O)nc(-c4ccccc4)c4cc([N+](=O)[O-])ccc43)C1C2 (stereo unspecified) |
| 146 | CCC(C)N(C)C(=O)c1cc2ccccc2c(-c2cccs2)n1 (stereo unspecified) |
| 166 to 171 | CC(=O)N(C)c1c(C(=O)c2cccc(C)c2)[nH]c2cc(Cl)ccc12 |
| 107 to 108 | C=Cc1c(OC)nc(-c2ccc(Cl)c(OC)c2F)nc1C(=O)OC |
| 118 to 120 | CCOC(=O)c1c(C)cc2c(c1C)C(=O)OC2(C)O (stereo unspecified) |
| 253 to 255 | COCCOc1cc(Cc2cnc(N)nc2N)cc2cccnc12 |
| 104 to 105 | COC(=O)C(C)c1ccc2oc(-c3c(F)cccc3Cl)nc2c1 (stereo unspecified) |
| 117 | COc1ccc(C)cc1C(CCO)c1cc(C)ccc1OC |
| 78 to 80 | COc1ccc2cc(C=CC(C)OC(C)=O)ccc2c1 (stereo unspecified) |
| 135 to 136 | Cc1ccc(C)c(C(CCC(=O)O)Oc2cc(OCc3ccsc3)ccc2C#N)c1 (racemic) |

| melting point [°C] | SMILES |
| --- | --- |
| 233 to 236 | COC(=O)/C=C/c1cc2c(-c3ccccc3)c(CC(=O)Nc3ccc(F)cc3C(F)(F)F)c(=O)oc2cc1C |
| > 200 | CSc1cc2c(cc1C(F)(F)F)N(C(=O)Nc1cccc(C(=O)Nc3ccncc3)c1)CC2 |
| 247 to 250 | Cc1cc(N2CCN(c3ccccc3)CC2)c2c(N)c(C(N)=O)sc2n1 |
| 69 to 70 | CCCCC1=C(Cl)C(=O)c2ccccc2C1=O |
| 239 to 240 | Cc1ccc2c(-c3cc(C(C)(C)C)c(O)c(C(C)(C)C)c3)n[nH]c2n1 |
| 156 to 158 | COc1cc2c(cc1OC)C(=CC(N)=O)NCC2 |
| 228 to 230 | Cc1nnc2n1CC(=O)N(C)c1ccc(Cl)cc1-2 |
| 154 | CCCC(=NOCC)C1=C(O)CC(c2c(C)c(C)c(C)c3cc(C(C)=O)oc23)CC1=O (stereo unspecified) |
| 114 to 115 | CCOc1ccc(-c2nc(CCC(=O)c3ccccc3C#N)cs2)cc1OCC |
| 107 to 109 | Cc1cccc(C(=O)N(NC(C)C)C(C)(C)C)c1 |
| 276 to 278 | CC(=O)Nc1cccc(C#CC=Cc2cccc(NC(C)=O)c2)c1 |
| 78 to 80 | CCCc1ccc(CCCOc2c(C)cc(-c3nnn(C)n3)cc2C)nn1 |
| 171 to 175 | Nc1nc(Cl)cc(C#Cc2ccc3c(C(=O)Nc4cccc(C(F)(F)F)c4)cccc3c2)n1 |
| 58 to 60 | CCCCNC(=O)[C@@H]1Cc2ccccc2CN1 |
| 68 to 70 | COC(=O)N1CCCc2onc(OC)c2C1 |
| 71 to 72 | CCCCCCCCCCOc1cc(OCCCCCCc2cccc(O)c2O)cc(C(=O)OC)c1 |
| 226 to 230 | CCC(C)C(C)C(=O)Nc1ccc2c(C)cn3c(=O)c(C(=O)NCCN4CCN(C(c5ccccc5)c5ccccc5)CC4)cnc3c2c1 (stereo unspecified) |
| 186 to 187 | COc1ccc(C(=O)Nc2cc(NC(=O)c3ccc(OCCCCl)cc3)ccc2C)cc1OC |
| 183 to 184 | CNC(=O)c1c(-c2ccccc2)noc1CC(O)c1ccccc1 (stereo unspecified) |
| 50 to 53 | CCOC(=O)C(=CNc1ccnn1CC)C(=O)OCC |
| 123 to 124 | C=CCOC(=O)C1=C(C)NC(C)=C(C(=O)OC)C1c1cc(Br)c(OC)c(OC)c1 (stereo unspecified) |
| 178 to 182 | COc1ccc2c(c1)c(/C=C/C(=O)c1ccncc1)cn2C |
| 103 to 104 | CCCC(CC(=O)NC(=O)OC(C)(C)C)Nc1ccccc1 (stereo unspecified) |
| 84 to 85 | COc1ccc(-c2coc3cc(OCC(O)CN4CCNCC4)ccc3c2=O)cc1OC (stereo unspecified) |
